The source of these data is US7468253B2, “Method for multiple chemokine receptor screening for antagonists using RAM assay” (Chemocentryx, Inc., priority 2001, dated 2008).

The target in one assay is T1, CCR1 (Homo sapiens, UniProt P32246).
T1 construct: THP-1 cells expressing cell surface CCR1 and CCR2; host or cells: THP-1 (human monocytic)
T1 sequence (P32246 1-355): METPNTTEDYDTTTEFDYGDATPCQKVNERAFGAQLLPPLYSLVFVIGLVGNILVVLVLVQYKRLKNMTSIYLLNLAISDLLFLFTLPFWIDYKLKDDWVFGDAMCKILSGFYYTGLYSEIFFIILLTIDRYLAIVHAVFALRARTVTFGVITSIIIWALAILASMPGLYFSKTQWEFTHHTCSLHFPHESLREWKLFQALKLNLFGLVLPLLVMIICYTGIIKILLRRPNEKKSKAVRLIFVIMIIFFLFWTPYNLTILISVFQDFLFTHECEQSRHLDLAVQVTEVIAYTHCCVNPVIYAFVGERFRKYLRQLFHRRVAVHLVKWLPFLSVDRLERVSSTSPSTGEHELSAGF
The assay can be described thus: Conventional cell migration assay, MIP-1α dose response in THP-1 cells. As to conditions: 90 minutes, FIG. 10. It is filed as cell-based. The protocol: (§1) To obtain a dose response curve for THP-1 cells expressing cell surface CCR1 and CCR2, a conventional cell migration assay was used (Bacon et al., 1988; Penfold et al., 1999). Cells were harvested by centrifugation and then resuspended in cell migration buffer (Hank's balanced salt solution (HBSS)/0.1% bovine serum albumin (BSA)) at 0.1×10^6 cells per well. The CCR1 and CCR2 ligands MIP-1α and MCP-1, respectively, were prepared in the concentration series (10 nM to 10 μM) by serial dilution in cell migration buffer. At low concentrations, MIP-1α and MCP-1 activate cell migration of CCR1 and CCR2 bearing activated cells, respectively.
(§2) MIP-1α and MCP-1 were loaded in the bottom chamber of a ChemoTx® cell migration apparatus (5 μm pore polycarbonate polyvinylpyrrolidone-coated filters (Neuroprobe; Gaithersburg, Md.); 29 μl/well) and 20 μl of cell suspension (100K cell per well) was placed in the upper chamber. The cells were incubated at 37° C. for 90 minutes. The assay was terminated by removing the cells from the upper chamber and membrane surface using a rubber scraper. The cells that migrated to the lower chamber were quantified by CyQuant assay (Molecular Probes; Eugene, Oreg.), a fluorescent dye method that measures nucleic acid content. […]

The test system of assay [1] is THP-1 cells. Kind of assay: Effect of full RAM concentration of MIP-1α on MCP-1-induced migration. It is filed as cell-based, human. The note with it: 100 nM MIP-1α, FIG. 11A. The protocol: An effect of 100 nM of MIP-1α on MCP-1 was studied by comparing migration levels of THP-1 cells as activated by MCP-1 with THP-1 cell migration levels as activated by incubation with MCP-1 and 100 nM MIP-1α.
(§3) 100 nM MIP-1α with MCP-1 at various concentrations were loaded in the bottom chamber of a ChemoTx® cell migration apparatus (5 μm pore polycarbonate polyvinylpyrrolidone-coated filters (Neuroprobe; Gaithersburg, Md.); 29 μl/well) and 20 μl of cell suspension (100K cell per well) was placed in the upper chamber. The cells were incubated at 37° C. for 90 minutes. The assay was terminated by removing the cells from the upper chamber and membrane surface using a rubber scraper. The cells that migrated to the lower chamber were quantified by CyQuant assay (Molecular Probes; Eugene, Oreg.), a fluorescent dye method that measures nucleic acid content.

A further assay deals with T2, CXCR4 (Homo sapiens, UniProt P61073).
T2 construct: endogenous in cells
T2 sequence (P61073 whole entry): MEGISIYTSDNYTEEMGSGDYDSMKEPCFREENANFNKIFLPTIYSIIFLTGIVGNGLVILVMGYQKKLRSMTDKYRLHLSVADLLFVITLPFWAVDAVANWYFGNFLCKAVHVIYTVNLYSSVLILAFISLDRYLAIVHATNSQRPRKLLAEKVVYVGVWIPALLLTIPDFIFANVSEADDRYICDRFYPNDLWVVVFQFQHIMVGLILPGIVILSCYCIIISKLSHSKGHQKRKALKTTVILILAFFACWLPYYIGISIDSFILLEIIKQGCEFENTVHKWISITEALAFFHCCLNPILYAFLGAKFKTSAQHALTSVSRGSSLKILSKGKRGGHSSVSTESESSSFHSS
Kind of assay: Conventional cell migration assay, SDF-1α dose response (determining inhibitory concentration). Format: cell-based. As to conditions: CXCR4-bearing activated lymphocytes, 150 minutes. The protocol: To obtain a dose response curve for activated lymphocytes expressing cell surface CXCR4, a conventional cell migration assay was used (Bacon et al., 1988; Penfold et al., 1999). The activated lymphocytes were prepared by culturing lymphocytes in the presence of interleukin-2 (IL-2) and phytohemeagglutinin (PHA). To isolate peripheral blood lymphocytes (i.e., a thin layer of white blood cells called the buffy coat), blood samples from the Stanford blood center were centrifuged for 10 minutes at 1200 rpm leaving a concentrated fraction containing predominantly white blood cellular fraction. Next, peripheral blood mononuclear cells (PBMC) were prepared by the standard Ficoll-Pague (Amersham Biosciences) gradient centrifugation method. Following the centrifugation, PBMC were removed and resuspended in MACS (Dulbecco's Phosphate Buffered Saline, DPBS; 1% Bovine Serum Albumin, BSA) buffer. After removal of the PMBCs, the monocytes were separated by a CD14 positive selection column mounted on an AutoMac (Multenyi Biotech). […]
The CXCR4 ligand stromal-derived factor (SDF-1α) was prepared in a concentration series (0.1 nM to […]) by serial dilution in cell migration buffer. […] The cells that migrated to the lower chamber were quantified by the CyQuant assay (Molecular Probes; Eugene, Oreg.), a fluorescent dye method that measures nucleic acid content. […]

The next assay concerns the target T3, CCR2 (Homo sapiens, UniProt P41597).
T3 construct: THP-1 cells expressing cell surface CCR1 and CCR2; host or cells: THP-1 (human monocytic)
T3 sequence (P41597 1-360 isoform P41597-2): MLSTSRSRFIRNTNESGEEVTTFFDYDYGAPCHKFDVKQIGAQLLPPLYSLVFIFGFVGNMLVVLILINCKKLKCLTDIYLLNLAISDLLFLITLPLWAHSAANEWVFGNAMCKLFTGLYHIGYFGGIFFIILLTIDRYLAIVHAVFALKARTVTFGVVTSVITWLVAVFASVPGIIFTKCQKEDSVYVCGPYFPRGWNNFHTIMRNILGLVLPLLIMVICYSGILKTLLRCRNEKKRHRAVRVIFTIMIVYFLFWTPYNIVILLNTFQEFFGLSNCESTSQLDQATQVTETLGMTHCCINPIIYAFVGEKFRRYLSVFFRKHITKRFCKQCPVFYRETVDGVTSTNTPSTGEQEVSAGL
The assay can be described thus: Conventional cell migration assay, MCP-1 dose response in THP-1 cells. Format: cell-based. As to conditions: 90 minutes, FIG. 10. Here is the method: as §1, §2

Assay [2] has as its system THP-1 cells. Kind of assay: Effect of full RAM concentration of MCP-1 on MIP-1α-induced migration. Format: cell-based, human. As to conditions: 100 nM MCP-1, THP-1 cells, FIG. 11B. The protocol:
An effect of 100 nM of MCP-1 on MIP-1α was studied by comparing migration levels of THP-1 cells as activated by MIP-1α with THP-1 cell migration levels as activated by incubation with MIP-1α and 100 nM MCP-1.
as §3, with “nM MCP-1 with” for “nM”, “MIP-1α” for “MIP-1α with MCP-1”

Consider “MIP-1α: CCR1 ligand, chemokine purchased from PeproTech”, for which, in the assay with CCR1, the “concentration determined to be completely inhibitory for cell migration” value was 150 nM. Also, in the assay on THP-1 cells [1], the “effect on MCP-1-induced cell migration” value is listed as “no significant effect”. Regarding SDF-1α, the “concentration determined to be completely inhibitory for cell migration” value at CXCR4 was 1 µM. “MCP-1: CCR2 ligand, chemokine purchased from PeproTech”: the “concentration determined to be completely inhibitory for cell migration” value with CCR2 was 150 nM. Also, the “effect on MIP-1α-induced cell migration” value with THP-1 cells [2] is “no significant effect”.
